# Assay results as given in PubChem BioAssay AID2060506 (Molecular Pharmacology Branch, DTP, NCI, 2025).
# System: 598228-144-R-J1-PDC complex spheroid viability
# Assay: Anticancer human tumor 598228-144-R-J1-PDC patient-derived serous endometrial adenocarcinoma cell line growth inhibition [GQUAD]
# Conditions: for IC50: curve of first compound; for viability, T/C: stronger effect = lower value
# Procedure, shortened: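 Viability of tumor cells grown as complex spheroids with endothelial and stromal cells, exposed to drug combinations. Top concentration at or near clinical Cmax (else 10 microM), diluted in half-log increments.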
# [1] = second compound 0.0316 µM, first compound 0.0316 µM
# [2] = second compound 0.0316 µM, first compound 0.1 µM
# [3] = second compound 0.0316 µM, first compound 0.316 µM
# [4] = second compound 0.0316 µM, first compound 1 µM
# [5] = second compound 0.0316 µM, first compound 3.16 µM
# [6] = second compound 0.0316 µM, first compound 10 µM
# [7] = second compound 0.1 µM, first compound 0.0316 µM
# [8] = second compound 0.1 µM, first compound 0.1 µM
# [9] = second compound 0.1 µM, first compound 0.316 µM
# [10] = second compound 0.1 µM, first compound 1 µM
# [11] = second compound 0.1 µM, first compound 3.16 µM
# [12] = second compound 0.1 µM, first compound 10 µM
# [13] = second compound 0.316 µM, first compound 0.0316 µM
# [14] = second compound 0.316 µM, first compound 0.1 µM
# [15] = second compound 0.316 µM, first compound 0.316 µM
# [16] = second compound 0.316 µM, first compound 1 µM
# [17] = second compound 0.316 µM, first compound 3.16 µM
# [18] = second compound 0.316 µM, first compound 10 µM
# [19] = second compound 1 µM, first compound 0.0316 µM
# [20] = second compound 1 µM, first compound 0.1 µM
# [21] = second compound 1 µM, first compound 0.316 µM
# [22] = second compound 1 µM, first compound 1 µM
# [23] = second compound 1 µM, first compound 3.16 µM
# [24] = second compound 1 µM, first compound 10 µM
# [25] = second compound 3.16 µM, first compound 0.0316 µM
# [26] = second compound 3.16 µM, first compound 0.1 µM
# [27] = second compound 3.16 µM, first compound 0.316 µM
# [28] = second compound 3.16 µM, first compound 1 µM
# [29] = second compound 3.16 µM, first compound 3.16 µM
# [30] = second compound 3.16 µM, first compound 10 µM
# [31] = second compound 10 µM, first compound 0.0316 µM
# [32] = second compound 10 µM, first compound 0.1 µM
# [33] = second compound 10 µM, first compound 0.316 µM
# [34] = second compound 10 µM, first compound 1 µM
# [35] = second compound 10 µM, first compound 3.16 µM
# [36] = second compound 10 µM, first compound 10 µM
# 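Note: spheroids exposed to the agents for one week before reading.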
# 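Throughout, for viability, T/C: percent of vehicle DMSO control viability so 100% = untreated growth.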
smiles,measurement,setting,value
CCCS(=O)(=O)Nc1ccc(F)c(C(=O)c2c[nH]c3ncc(-c4ccc(Cl)cc4)cc23)c1F + Cc1[nH]c2ccc(F)cc2c1-c1nc2c3cccnc3c3ncccc3c2[nH]1,IC50,second compound 0.0316 µM,8.5 µM
same,IC50,second compound 0.1 µM,8.72 µM
same,IC50,second compound 0.316 µM,> 10 µM
same,IC50,second compound 1 µM,9.54 µM
same,IC50,second compound 3.16 µM,< 0.0316 µM
same,IC50,second compound 10 µM,8.2 µM
same,"viability, T/C",[1],130%
same,"viability, T/C",[2],118%
same,"viability, T/C",[3],135%
same,"viability, T/C",[4],115%
same,"viability, T/C",[5],114%
same,"viability, T/C",[6],39.2%
same,"viability, T/C",[7],103%
same,"viability, T/C",[8],112%
same,"viability, T/C",[9],97.9%
same,"viability, T/C",[10],106%
same,"viability, T/C",[11],95.5%
same,"viability, T/C",[12],43.6%
same,"viability, T/C",[13],122%
same,"viability, T/C",[14],126%
same,"viability, T/C",[15],102%
same,"viability, T/C",[16],103%
same,"viability, T/C",[17],129%
same,"viability, T/C",[18],51.6%
same,"viability, T/C",[19],80.9%
same,"viability, T/C",[20],71.9%
same,"viability, T/C",[21],84.2%
same,"viability, T/C",[22],76%
same,"viability, T/C",[23],92.2%
same,"viability, T/C",[24],48.8%
same,"viability, T/C",[25],39.3%
same,"viability, T/C",[26],48.6%
same,"viability, T/C",[27],43.1%
same,"viability, T/C",[28],56.4%
same,"viability, T/C",[29],56.2%
same,"viability, T/C",[30],31.1%
same,"viability, T/C",[31],73.4%
same,"viability, T/C",[32],65.1%
same,"viability, T/C",[33],78.5%
same,"viability, T/C",[34],70.4%
same,"viability, T/C",[35],83.5%
same,"viability, T/C",[36],45.1%
Nc1ccn(C2OC(CO)C(O)C2(F)F)c(=O)n1 (stereo unspecified) + Cc1[nH]c2ccc(F)cc2c1-c1nc2c3cccnc3c3ncccc3c2[nH]1,IC50,second compound 0.0316 µM,0.439 µM
same,IC50,second compound 0.1 µM,0.136 µM
same,IC50,second compound 0.316 µM,0.135 µM
same,IC50,second compound 1 µM,0.0448 µM
same,IC50,second compound 3.16 µM,< 0.0316 µM
same,IC50,second compound 10 µM,< 0.0316 µM
same,"viability, T/C",[1],64.6%
same,"viability, T/C",[2],54.6%
same,"viability, T/C",[3],52.1%
same,"viability, T/C",[4],47.9%
same,"viability, T/C",[5],43.9%
same,"viability, T/C",[6],41%
same,"viability, T/C",[7],54.8%
same,"viability, T/C",[8],57.5%
same,"viability, T/C",[9],45.3%
same,"viability, T/C",[10],40%
same,"viability, T/C",[11],39.9%
same,"viability, T/C",[12],44.9%
same,"viability, T/C",[13],60.7%
same,"viability, T/C",[14],52.3%
same,"viability, T/C",[15],48.3%
same,"viability, T/C",[16],39.9%
same,"viability, T/C",[17],43.6%
same,"viability, T/C",[18],49.7%
same,"viability, T/C",[19],53.2%
same,"viability, T/C",[20],49.1%
same,"viability, T/C",[21],46.2%
same,"viability, T/C",[22],36.3%
same,"viability, T/C",[23],50.4%
same,"viability, T/C",[24],41.9%
same,"viability, T/C",[25],36.3%
same,"viability, T/C",[26],36.7%
same,"viability, T/C",[27],38.5%
same,"viability, T/C",[28],37.9%
same,"viability, T/C",[29],32.4%
same,"viability, T/C",[30],44.5%
same,"viability, T/C",[31],51.6%
same,"viability, T/C",[32],37.6%
same,"viability, T/C",[33],37.8%
same,"viability, T/C",[34],47.5%
same,"viability, T/C",[35],35.7%
same,"viability, T/C",[36],32%
O=c1[nH]cc(F)c(=O)[nH]1 + Cc1[nH]c2ccc(F)cc2c1-c1nc2c3cccnc3c3ncccc3c2[nH]1,IC50,second compound 0.0316 µM,> 10 µM
same,IC50,second compound 0.1 µM,> 10 µM
same,IC50,second compound 0.316 µM,> 10 µM
same,IC50,second compound 1 µM,> 10 µM
same,IC50,second compound 3.16 µM,< 0.0316 µM
same,IC50,second compound 10 µM,> 10 µM
same,"viability, T/C",[1],106%
same,"viability, T/C",[2],112%
same,"viability, T/C",[3],90.2%
same,"viability, T/C",[4],94.3%
same,"viability, T/C",[5],89.6%
same,"viability, T/C",[6],81.4%
same,"viability, T/C",[7],97.4%
same,"viability, T/C",[8],102%
same,"viability, T/C",[9],85.1%
same,"viability, T/C",[10],109%
same,"viability, T/C",[11],91.8%
same,"viability, T/C",[12],93.9%
same,"viability, T/C",[13],98.6%
same,"viability, T/C",[14],99.9%
same,"viability, T/C",[15],74.9%
same,"viability, T/C",[16],85.8%
same,"viability, T/C",[17],70.4%
same,"viability, T/C",[18],67.2%
same,"viability, T/C",[19],57.5%
same,"viability, T/C",[20],66.9%
same,"viability, T/C",[21],58%
same,"viability, T/C",[22],55.5%
same,"viability, T/C",[23],54.5%
same,"viability, T/C",[24],60.7%
same,"viability, T/C",[25],38.1%
same,"viability, T/C",[26],39.2%
same,"viability, T/C",[27],49.5%
same,"viability, T/C",[28],48.1%
same,"viability, T/C",[29],48.8%
same,"viability, T/C",[30],47%
same,"viability, T/C",[31],66.8%
same,"viability, T/C",[32],62.6%
same,"viability, T/C",[33],63.8%
same,"viability, T/C",[34],60.8%
same,"viability, T/C",[35],57.4%
same,"viability, T/C",[36],54.2%
